The first test deals with guinea pig gall bladder. Description: Guinea pig gall bladder assay (contraction of isolated gallbladder rings). The format is cell-based. The following applies: Cavia porcellus, compounds tested at 1 μM, minimum of three determinations, read-out: Contraction (% sulfated CCK-8 maximal response). The text has this: GUINEA PIG GALL BLADDER ASSAY Tissue Preparation: Gallbladders were removed from guinea pigs sacrificed by cervical dislocation. The isolated gallbladders were cleaned of adherent connective tissue and cut into two rings from each animal (2-4 mm in length). The rings were subsequently suspended in organ chambers containing a physiological salt solution of the following composition (mM): NaCl (118.4); KCl (4.7); MgSO4 ×H2 O (1.2); CaCl2 ×2H2 O (2.5); […] (1.2); NaHCO3 (25) and dextrose (11.1). The bathing solution was maintained at 37° C. and aerated with 95% O2 /5%CO2. Tissues were connected via gold chains and stainless steel mounting wires to isometric force displacement transducers (Grass, Model FT03 D). Responses were then recorded on a polygraph (Grass, Model 7E). […] Assay: Rings were gradually stretched (over a 120 min. period) to a basal resting tension of 1 gm which was maintained throughout the experiment. During the basal tension adjustment period, the rings were exposed to acetylcholine (ACH, 10^-6 M) four times to verify tissue contractility. The tissues were then exposed to a submaximal dose of sulfated CCK-8 (Sigma, 3×10^-9 M). After obtaining a stable response, the tissues were washed out 3 times rapidly and every 5 to 10 minutes for 1 hour to reestablish a stable baseline. Compounds were dissolved in dimethylsulfoxide (DMSO) then diluted with water and assayed via a cumulative concentration-response curve to test compound (10^-11 to 3×10^-6 M) followed by a concentration-response curve to sulfated CCK-8 (10^-10 to 10^-6 M) in the presence of the highest dose of the test compound. As a final test, ACH (10 mM) was added to induce maximal contraction. A minimum of three determinations of activity were made for each test compound. The compounds were tested at a concentration of 1 μM and the results expressed as % sulfated CCK-8 maximal response.
As to `COc1ccc(N(C(=O)CN2C(=O)C(NC(=O)c3cc4ccccc4[nH]3)C(=O)N(c3ccccn3)c3ccccc32)C(C)C)cc1` (single isomer, unassigned) [Example 3, (+) or (-) 1H-Indole-2-carboxylic acid {1-[Isopropyl-(4-methoxy-phenyl)-carbamoylmethyl]-2,4-dioxo-5-pyridin-2-yl-2,3,4,5-tetrahydro-1H-benzo[b][1,4]diazepin-3-yl}-amide], the Emax at 1 µM was 83%.

For `COc1ccc(N(C(=O)CN2C(=O)C(NC(=O)c3cc4ccccc4[nH]3)C(=O)N(c3cccnc3)c3ccccc32)C(C)C)cc1` (single isomer, unassigned) [Example 14, (+) or (-) 1H-Indole-2-carboxylic acid [I-[isopropyl-(4-methoxyphenyl)-carbamoylmethyl]-2,4-dioxo-5-pyridin-3-yl-2,3,4,5-tetrahydro-1H-benzo[b][1,4]diazepin-3-yl]amide], the Emax at 1 µM is 84%.

As for `COc1ccc(N(C(=O)CN2C(=O)C(NC(=O)Nc3ccccc3)C(=O)N(c3ccccn3)c3ccccc32)C(C)C)cc1` (stereo not shown) [Example 1, 2-[2,4-Dioxo-3-(3-phenyl-ureido)-5-pyridin-2-yl-2,3,4,5-tetrahydrobenzo[b][1,4]diazepin-1-yl]-N-isopropyl-N-(4-methoxy-phenyl)-acetamide], the Emax at 1 µM was 91%.

As for `COc1ccc(N(C(=O)CN2C(=O)C(NC(=O)c3cc4ccccc4[nH]3)C(=O)N(c3ccccn3)c3ccccc32)C(C)C)cc1` (stereo not shown) [Example 2, 1H-Indole-2-carboxylic acid {1-[Isopropyl-(4-methoxy-phenyl)-carbamoylmethyl]-2,4-dioxo-5-pyrdin-2-yl-2,3,4,5-tetrahydro-1H-benzo[b][1,4]diazepin-3-yl}-amide], the Emax at 1 µM came to 64%.

As to `COc1ccc(N(C(=O)CN2C(=O)C(NC(=O)c3cc4ccccc4[nH]3)C(=O)N(c3ncccn3)c3ccccc32)C(C)C)cc1` (stereo not shown) [Example 5, 1H-Indole-2-carboxylic acid {1-[Isopropyl-(4-methoxy-phenyl)-carbamoylmethyl]-2,4-dioxo-5-pyrimidin-2-yl-2,3,4,5-tetrahydro-1H-benzo[b][1,4]diazepin-3-yl}-amide], the Emax at 1 µM turned out to be 51%.

Consider `COc1ccc(N(C(=O)CN2C(=O)C(NC(=O)c3cc4ccccc4[nH]3)C(=O)N(c3c(C)nn(C)c3C)c3ccccc32)C(C)C)cc1` (stereo not shown) [Example 6, 1H-Indole-2-carboxylic acid [1-[isopropyl-(4-methoxy-phenyl)-carbamoylmethyl]-2,4-dioxo-5-(1,3,5-trimethyl-1H-pyrazol-4-yl)-2,3,4,5-tetrahydro-1H-benzo[b][1,4]diazepin-3-yl]-amide], for which the Emax at 1 µM came out at 32%.

`COc1ccc(N(C(=O)CN2C(=O)C(NC(=O)c3cc4ccccc4[nH]3)C(=O)N(c3cccnc3)c3ccccc32)C(C)C)cc1` (stereo not shown) [Example 7, 1H-Indole-2-carboxylic acid {1[isopropyl-(4-methoxy-phenyl)-carbamoylmethyl]-2,4-dioxo-5-pyridin-3-yl-2,3,4,5-tetrahydro-1H-benzo[b][1,4]diazepin-3-yl}-amide]: the Emax at 1 µM came out at 77%.

Turning to `COc1ccc(N(C(=O)CN2C(=O)C(NC(=O)Nc3ccccc3)C(=O)N(c3cccnc3)c3ccccc32)C(C)C)cc1` (stereo not shown) [Example 8, 2-[2,4-dioxo-3-(3-phenyl-ureido)-5-pyridin-3-yl-2,3,4,5-tetrahydrobenzo[b][1,4]diazepin-1-yl]-N-isopropyl-N-(4-methoxy-phenyl) acetamide], the Emax at 1 µM was determined as 81%.

In the case of `COc1ccc(N(C(=O)CN2C(=O)C(NC(=O)Nc3cccc(C(=O)O)c3)C(=O)N(c3cccnc3)c3ccccc32)C(C)C)cc1` (stereo not shown) [Example 10, 3-(3-{1-[isopropyl-(4-methoxy-phenyl)-carbamoylmethyl]-2,4-dioxo-5-pyridin-3-yl-2,3,4,5-tetrahydro-1H-benzo[b][1,4]diazepin-3-yl}-ureido)-benzoic acid], the Emax at 1 µM amounted to 83%.

For the compound `COc1ccc(N(C(=O)CN2C(=O)C(NC(=O)c3cc4ccccc4[nH]3)C(=O)N(c3ccncc3)c3ccccc32)C(C)C)cc1` (stereo not shown) [Example 11, 1H-Indole-2-carboxylic acid {1-[Isopropyl-(4-methoxy-phenyl)-carbamoylmethyl]-2,4-indoledioxo-5-pyridin4-yl-2,3,4,5,5a, 9a-hexahydro-1H-benzo[b][1,4]diazepin-3-yl}-amide], the Emax at 1 µM was determined as 67%.

As for `COc1ccc(N(C(=O)CN2C(=O)C(NC(=O)Nc3cccc(C(=O)O)c3)C(=O)N(c3cccnc3)c3cc(F)ccc32)C(C)C)cc1` (stereo not shown) [Example 13, 3-(3-{7-Fluoro-1-[isopropyl-(4-methoxy-phenyl)-carbamoylmethyl]-2,4-dioxo-5-pyridin-3-yl-2,3,4,5-tetrahydro-1H-benzo[b][1,4]diazepin-3-yl}-ureido)-benzoic acid], the Emax at 1 µM turned out to be 96%.

Staying with this test, now noted: compounds tested at 1 μM, minimum of three determinations.
As to `COc1ccc(N(C(=O)CN2C(=O)C(NC(=O)c3cc4ccccc4[nH]3)C(=O)N(c3ccccn3)c3ccccc32)C(C)C)cc1` (single isomer, unassigned) [Example 4, (+) or (-) 1H-Indole-2-carboxylic acid {1-[Isopropyl-(4-methoxy-phenyl)-carbamoylmethyl]-2,4-dioxo-5-pyridin-2-yl-2,3,4,5-tetrahydro-1H-benzo[b][1,4]diazepin-3-yl}-amide], the “Contraction (% sulfated CCK-8 maximal response)” value amounted to 67%.

As to `COc1ccc(N(C(=O)CN2C(=O)C(NC(=O)c3cc4ccccc4[nH]3)C(=O)N(c3cccnc3)c3ccccc32)C(C)C)cc1` (single isomer, unassigned) [Example 15, (+) or (-) 1H-Indole-2-carboxylic acid [I-[isopropyl-(4-methoxyphenyl)-carbamoylmethyl]-2,4-dioxo-5-pyridin-3-yl-2,3,4,5-tetrahydro-1H-benzo[b][1,4]diazepin-3-yl]amide], the “Contraction (% sulfated CCK-8 maximal response)” value is on record as 93%.

The values above are taken from patent publication US5739129A, “CCK or gastrin modulating 5-heterocyclic-1, 5 benzodiazepines” (Glaxo Wellcome Inc., priority 1994, dated 1998).
